A short description of the data set: Phase I clinical trial, pharmacokinetics of loxoprofen sodium eye drops. The settings on record: human, in vivo, topical or ocular; for AUC(0-t): read-out: Average AUC0-t. The method, then:
loxoprofen sodium eye drops: eye drops of different concentrations were prepared according to Example 1; and
2. Research methods: single-center, randomized, double-blind, single and multiple administration dosage escalation designs were used to explore the safety, tolerability and pharmacokinetic characteristics of loxoprofen sodium eye drops. Single administration includes dosages of 0.025 mg (a concentration of 0.5 mg/ml), 0.05 mg (a concentration of 1 mg/ml), 0.1 mg (a concentration of 2 mg/ml), and 0.2 mg (a concentration of 4 mg/mL), with an administration method of once a day, one drop each; and multiple administration includes dosages of 0.05 mg, 0.1 mg, and 0.2 mg, with an administration method of four times a day, one drop each.

Each structure is given as a SMILES string. Like-named read-outs stand apart in the source and are kept apart here.

For one compound, Cmax, AUC(0-t) and Tmax results are on record in patent publication US20240315966A1, “COMPOSITION CONTAINING LOXOPROFEN SODIUM” (GUANGZHOU OCUSUN OPHTHALMIC BIOTECHNOLOGY CO., LTD., priority 2021, published 2024).

`CC(C(=O)O)c1ccc(CC2CCCC2=O)cc1` (stereo not shown) [loxoprofen]: the Cmax is, setting by setting: (0.05 mg, multiple administration (four times a day)) 2.66 ± 0.6 ng/mL; (0.1 mg, multiple administration (four times a day)) 4.22 ± 1.79 ng/mL; (0.1 mg, single administration) 3.69 ± 0.88 ng/mL; (0.2 mg, multiple administration (four times a day)) 9.46 ± 3.73 ng/mL; (0.2 mg, single administration) 8.73 ± 5.19 ng/mL. For the same compound, the AUC(0-t) by setting is: (0.05 mg, multiple administration (four times a day), 0.05 mg) 0.47 ± 0.43 ng·h/mL; (0.1 mg, multiple administration (four times a day), 0.1 mg) 2.08 ± 1.56 ng·h/mL; (0.1 mg, single administration, 0.1 mg) 1.71 ± 0.99 ng·h/mL; (0.2 mg, multiple administration (four times a day), 0.2 mg) 8.33 ± 4.4 ng·h/mL; (0.2 mg, single administration, 0.2 mg) 6.82 ± 6.3 ng·h/mL. The Tmax by setting is: (multiple administration (four times a day), 0.05 mg) 12 min; (multiple administration (four times a day), 0.1 mg) 12 min; (multiple administration (four times a day), 0.2 mg) 12 min.
